Test results reported in patent US7335686B2, “Method and composition for treating osteoporosis” (Council of Scientific and Industrial Research, priority 2003, dated 2008).

Tested on: osteoclast precursors (murine bone marrow cells)
Assay: In vitro osteoclastogenesis assay (M-CSF + RANKL, TRAP staining)
Format: cell-based, Balb/c mice
Details: M-CSF and RANKL, TRAP-positive osteoclasts
Experimental: Mice were sacrificed by cervical dislocation and femora and tibiae were aseptically removed and dissected free of adherent soft tissues. The bone ends were cut, and the marrow cavity was flushed out with medium MEM from one end of the bone using a sterile 21-gauge needle. The bone marrow suspension was carefully agitated with a plastic Pasteur pipette to obtain a single-cell suspension. The cells were washed twice and resuspended (10^6 cells/ml) in αMEM containing 10% FBS. […] After 24 h, nonadherent cells were harvested and layered on a Ficoll-Hypaque gradient. Cells at the gradient interface were collected, washed and resuspended (5×10^5/ml) in αMEM containing 10% FBS. In this study, we called these stromal cell-free, M-CSF-dependent, nonadherent cells as osteoclast precursors. These osteoclast precursors were added to 96-well plates (100 μl/well) containing plastic coverslips. […] Cultures were fed every 2-3 days and after incubation for 6 days osteoclast formation was evaluated by tartrate-resistant acid phosphatase (TRAP) staining. The number of TRAP-positive multinucleated cells (MNCs) containing 3 or more nuclei was scored.
TRAP is preferentially expressed at high levels in osteoclast and is considered, especially in the mouse, to be an osteoclast marker. […] Only those cells that were strongly TRAP-positive (dark red) counted by light microscopy.

Compound	Effect on RANKL-induced osteoclast formation/differentiation (in words)
O=C(O)C[C@H](NS(=O)(=O)O)C(=O)O [example 3, L-aspartyl, N-sulfonic acid]	significantly inhibited osteoclast formation
O=C([O-])CC[C@H](NS(=O)(=O)[O-])C(=O)[O-].O=C([O-])CC[C@H](NS(=O)(=O)[O-])C(=O)[O-].[Ca+2].[Ca+2].[Ca+2] [compound 1, L-glutamyl-N-sulphonic acid, Ca salt]	dose dependent inhibition
